Legend:
Format in all cases: cell-based
[1] = tested on: Enterobacter aerogenes EA 27; experiment: MIC of PMBN, microdilution in liquid medium
Method: (§1) Likewise, prior to carrying out the discriminating method according to the invention, the PMBN-sensitivity of each of the model strains used was evaluated by means of a method of microdilution in liquid medium.
(§2) To do this, each of the strains was cultured in Mueller-Hinton broth (MHII-Becton Dickinson®, United States). On inocula containing 2×10^5 CFU/ml, serial doubling dilutions were carried out for the PMBN in order to determine the minimum inhibitory concentrations. The PMBN-sensitivity was read after 18 hours of incubation at 37° C., by addition of 0.2 mg/ml of iodonitrotetrazolium chloride (Sigma-Aldrich®, United States).

[2] = tested on: C. freundii 0403012; experiment: MIC of PMBN
Method: as §1, §2

[3] = tested on: C. freundii 1204047; experiment: MIC of PMBN
Method: as §1, §2

[4] = tested on: E. aerogenes 1204048; experiment: MIC of PMBN
Method: as §1, §2

[5] = tested on: E. aerogenes 9203076; experiment: MIC of PMBN
Method: as §1, §2

[6] = tested on: E. aerogenes 9306071; experiment: MIC of PMBN
Method: as §1, §2

[7] = tested on: E. cloacae 0901026 (KPC-2 producer); experiment: MIC of PMBN
Method: as §1, §2

[8] = tested on: E. cloacae 1008073 (VIM-1 producer); experiment: MIC of PMBN
Method: as §1, §2

[9] = tested on: E. cloacae 1008079 (IMP-1 producer); experiment: MIC of PMBN
Method: as §1, §2

[10] = tested on: E. cloacae 1008096 (VIM-1 producer); experiment: MIC of PMBN
Method: as §1, §2

[11] = tested on: E. cloacae 1101172 (NDM producer); experiment: MIC of PMBN
Method: as §1, §2

[12] = tested on: E. cloacae 9304026; experiment: MIC of PMBN
Method: as §1, §2

[13] = tested on: E. cloacae 9402034; experiment: MIC of PMBN
Method: as §1, §2

[14] = tested on: E. coli 0506040 (VIM-1 producer); experiment: MIC of PMBN
Method: as §1, §2

[15] = tested on: E. coli 1008077 (VIM-1 producer); experiment: MIC of PMBN
Method: as §1, §2

[16] = tested on: E. coli 1012292 (KPC-2 producer); experiment: MIC of PMBN
Method: as §1, §2

[17] = tested on: E. coli 1204043; experiment: MIC of PMBN
Method: as §1, §2

[18] = tested on: K. pneumoniae 0404024 (VIM-1 producer); experiment: MIC of PMBN
Method: as §1, §2

[19] = tested on: K. pneumoniae 0901027 (KPC-3 producer); experiment: MIC of PMBN
Method: as §1, §2

[20] = tested on: K. pneumoniae 1002015; experiment: MIC of PMBN
Method: as §1, §2

[21] = tested on: K. pneumoniae 1012335 (OXA-48 producer); experiment: MIC of PMBN
Method: as §1, §2

[22] = tested on: K. pneumoniae 1104053 (OXA-48 producer); experiment: MIC of PMBN
Method: as §1, §2

[23] = tested on: K. pneumoniae 1108001 (KPC-2 producer); experiment: MIC of PMBN
Method: as §1, §2

[24] = tested on: K. pneumoniae 1108002 (KPC-3 producer); experiment: MIC of PMBN
Method: as §1, §2

[25] = tested on: K. pneumoniae 1108007 (VIM-1 producer); experiment: MIC of PMBN
Method: as §1, §2

[26] = tested on: K. pneumoniae 1204034; experiment: MIC of PMBN
Method: as §1, §2

[27] = tested on: S. marcescens 1008175 (IMP-1 producer); experiment: MIC of PMBN
Method: as §1, §2

For polymyxin B nonapeptide [PMBN], the MICPMBN [1] was “MICPMBN = 1024 μg/ml”, the MICPMBN [2] was “MICPMBN = 256 μg/ml” and the MICPMBN [3] was “MICPMBN = 1024 μg/ml”. For the same substance, the MICPMBN [4] was “MICPMBN >1024 μg/ml”, the MICPMBN [5] was “MICPMBN = 1024 μg/ml” and the MICPMBN [6] was “MICPMBN = 1024 μg/ml”. The MICPMBN [7] was “MICPMBN = 1024 μg/ml”, the MICPMBN [8] was “MICPMBN = 1024 μg/ml” and the MICPMBN [9] was “MICPMBN >1024 μg/ml”. For the same substance, the MICPMBN [10] was “MICPMBN = 1024 μg/ml”, the MICPMBN [11] was “MICPMBN = 1024 μg/ml” and the MICPMBN [12] was “MICPMBN >1024 μg/ml”. The MICPMBN [13] was “MICPMBN >1024 μg/ml”, the MICPMBN [14] was “MICPMBN = 128 μg/ml” and the MICPMBN [15] was “MICPMBN = 1024 μg/ml”. For the same substance, the MICPMBN [16] was “MICPMBN = 1024 μg/ml”, the MICPMBN [17] was “MICPMBN = 512 μg/ml” and the MICPMBN [18] was “MICPMBN >1024 μg/ml”. For the same substance, the MICPMBN [19] was “MICPMBN >1024 μg/ml”, the MICPMBN [20] was “MICPMBN = 1024 μg/ml” and the MICPMBN [21] was “MICPMBN = 1024 μg/ml”. For the same substance, the MICPMBN [22] was “MICPMBN = 1024 μg/ml”, the MICPMBN [23] was “MICPMBN = 1024 μg/ml” and the MICPMBN [24] was “MICPMBN >1024 μg/ml”. The MICPMBN [25] was “MICPMBN = 1024 μg/ml”, the MICPMBN [26] was “MICPMBN = 256 ng/ml” and the MICPMBN [27] was “MICPMBN = 1024 μg/ml”.

— patent US20180155757A1, “IDENTIFICATION OF BACTERIA THAT ARE RESISTANT TO CARBAPENEMS BY MEMBRANE IMPERVIOUSNESS” (BIOMÉRIEUX, priority 2015, published 2018)
